Data: paper PMC8533949, “Biocatalytic Production of Aldehydes: Exploring the Potential of Lathyrus cicera Amine Oxidase” (Biomolecules, 2021)

These molecules were tested on T1, Lathyrus cicera amine oxidase (LCAO) (assay: coupled peroxidase assay (AAP/DCHBS, […] nm), initial rates). Conditions: pH 7, 20 mM phosphate, 25 °C, air O2.
T1 construct: copper/TPQ enzyme
Format: biochemical
Work on `NCCc1ccccc1` [2a] yielded a Km of 1200 µM.
For `NCCCN1CCOCC1` [15a], the Km was 17000 µM.
Work on `NCCc1ccc(O)cc1` [1a] yielded a Km of 600 µM.
For `NCCC1=CCCCC1` [14a], the Km was 1900 µM.
`NCCCn1ccnc1` [16a] was tested, and the Km was 610 µM.
In the case of `NCCc1ccc(Cl)cc1` [10a], the Km is reported as 3380 µM.
For `COc1cccc(CCN)c1` [7a], the Km was 470 µM.
`NCCc1ccc2c(c1)OCO2` [8a] showed a Km of 3830 µM.
In the case of `COc1cc(CCN)ccc1O` [4a], the Km is reported as 1310 µM.
Molecule `NCCN1CCOCC1` [12a] has a Km of 6460 µM.
Work on `CN(C)CCCN` [19a] yielded a Km of 8800 µM.
In the case of `NCCN1CCCCC1` [11a], the Km is reported as 420 µM.
`COc1ccc(CCN)cc1` [6a] showed a Km of 5370 µM.
`NCCC1CCCCC1` [13a] showed a Km of 1440 µM.
Molecule `COc1ccc(CCN)cc1O` [3a] has a Km of 1580 µM.
Molecule `NCCCN1CCCC1` [17a] has a Km of 2300 µM.
Work on `CN(C)CCN` [18a] yielded a Km of 230 µM.
`COc1ccc(CCN)cc1OC` [5a] gave a Km of 1000 µM.
